In ChEMBL document CHEMBL5375999, “Discovery of a Dual Tubulin and Neuropilin-1 (NRP1) Inhibitor with Potent In Vivo Anti-Tumor Activity via Pharmacophore-based Docking Screening, Structure Optimization, and Biological Evaluation” (J Med Chem, 2023):
Calls of active or inactive are those of the source. No cut-off for these calls is given here.

Assays:
[1] = target: Vascular endothelial growth factor A, long form (Homo sapiens, UniProt P15692); assay: Inhibition of VEGF (unknown origin)
[2] = target: AP2-associated protein kinase 1 (Homo sapiens, UniProt Q2M2I8); assay: Inhibition of AAK1 (unknown origin)
[3] = target: Activin receptor type-1 (Homo sapiens, UniProt Q04771); assay: Inhibition of ACVR1 (unknown origin)
[4] = target: Atypical kinase COQ8A, mitochondrial (Homo sapiens, UniProt Q8NI60); assay: Inhibition of ADCK3 (unknown origin)
[5] = target: ALK tyrosine kinase receptor (Homo sapiens, UniProt Q9UM73); assay: Inhibition of ALK (unknown origin)
[6] = target: Tyrosine-protein kinase Blk (Homo sapiens, UniProt P51451); assay: Inhibition of BLK (unknown origin)
[7] = target: Cyclin-dependent kinase 4 (Homo sapiens, UniProt P11802); assay: Inhibition of CDK4 (unknown origin)
[8] = target: Cyclin-dependent kinase 8 (Homo sapiens, UniProt P49336); assay: Inhibition of CDK8 (unknown origin)
[9] = target: STE20-like serine/threonine-protein kinase (Homo sapiens, UniProt Q9H2G2); assay: Inhibition of SLK (unknown origin)
[10] = target: Cyclin-dependent kinase 9 (Homo sapiens, UniProt P50750); assay: Inhibition of CDK9 (unknown origin)
[11] = target: Epidermal growth factor receptor (Homo sapiens, UniProt P00533); assay: Inhibition of EGFR (unknown origin)
[12] = target: Tyrosine-protein kinase Fgr (Homo sapiens, UniProt P09769); assay: Inhibition of FGR (unknown origin)
[13] = target: Tyrosine-protein kinase HCK (Homo sapiens, UniProt P08631); assay: Inhibition of HCK (unknown origin)
[14] = target: Mitogen-activated protein kinase 8 (Homo sapiens, UniProt P45983); assay: Inhibition of JNK1 (unknown origin)
[15] = target: Serine/threonine-protein kinase 38 (Homo sapiens, UniProt Q15208); assay: Inhibition of NDR1 (unknown origin)
[16] = target: RAF proto-oncogene serine/threonine-protein kinase (Homo sapiens, UniProt P04049); assay: Inhibition of RAF1 (unknown origin)
[17] = target: T1, Tubulin (Homo sapiens) (UniProt P68371+Q9H4B7+P0DPH7+P68366+Q13509+Q71U36+P04350+Q3ZCM7+P07437+P68363+Q9BQE3+Q6PEY2+Q13885+Q9BVA1+Q9BUF5); assay: Inhibition of tubulin polymerization in human PC-3 cells assessed as microtubule destruction at 2.5 to 12.5 uM incubated for 48 hrs by immunofluorescence assay; assay type: cell-based; settings: dose 2.5-12.5 µM
[18] = target: T1, Tubulin (Homo sapiens); assay: Inhibition of tubulin polymerization in human PC-3 cells assessed as nucleus disappearance at 2.5 to 12.5 uM incubated for 48 hrs by immunofluorescence assay; assay type: cell-based; settings: dose 2.5-12.5 µM
[19] = test system: PC-3; assay: Cytotoxicity against human PC-3 cells assessed as inhibition of cell viability incubated for 48 hrs by MTT assay; assay type: functional, cell-based; settings: PC-3, 48 h
[20] = test system: DU-145; assay: Cytotoxicity against human DU-145 cells assessed as inhibition of cell viability incubated for 48 hrs by MTT assay; assay type: functional, cell-based
[21] = test system: PC-3M; assay: Cytotoxicity against human PC-3M cells assessed as inhibition of cell viability incubated for 48 hrs by MTT assay; assay type: functional, cell-based
[22] = test system: PC-3; assay: Induction of cell cycle arrest in human PC-3 cells assessed as accumulation of cells at G2/M phase at 0.1 uM by flow cytometry analysis (reference value: 3.24%); assay type: functional
[23] = test system: PC-3; assay: Induction of cell cycle arrest in human PC-3 cells assessed as G0/G1 phase cells at 0.5 uM by flow cytometry analysis (reference value: 94.76%); assay type: functional
[24] = test system: PC-3; assay: Induction of cell cycle arrest in human PC-3 cells assessed as accumulation of cells at G2/M phase at 0.5 uM by flow cytometry analysis (reference value: 3.24%); assay type: functional
[25] = test system: PC-3; assay: Induction of cell cycle arrest in human PC-3 cells assessed as G0/G1 phase cells at 12.5 uM by flow cytometry analysis (reference value: 94.76%); assay type: functional
[26] = test system: PC-3; assay: Induction of cell cycle arrest in human PC-3 cells assessed as accumulation of cells at G2/M phase at 12.5 uM by flow cytometry analysis (reference value: 3.24%); assay type: functional
[27] = test system: PC-3; assay: Induction of cell cycle arrest in human PC-3 cells assessed as increase in p-cdc2 expression at 0.5 to 12.5 uM incubated for 48 hrs by Western blotting analysis; assay type: functional, cell-based; settings: dose 0.5-12.5 µM
[28] = test system: PC-3; assay: Induction of cell cycle arrest in human PC-3 cells assessed as decrease in cyclin-B1 expression at 0.5 to 12.5 uM incubated for 48 hrs by Western blotting analysis; assay type: functional, cell-based; settings: dose 0.5-12.5 µM
[29] = test system: PC-3; assay: Induction of apoptosis in human PC-3 cells assessed as necrotic cells at 0.5 uM by Annexin-V FITC staining based flow cytometry analysis (reference value: 0.059%); assay type: functional
[30] = test system: PC-3; assay: Induction of apoptosis in human PC-3 cells assessed as viable cells at 2.5 uM by Annexin-V FITC staining based flow cytometry analysis (reference value: 96.8%); assay type: functional; settings: read-out: Activity
[31] = test system: PC-3; assay: Induction of apoptosis in human PC-3 cells assessed as late apoptotic cells at 2.5 uM by Annexin-V FITC staining based flow cytometry analysis (reference value: 1.67%); assay type: functional
[32] = test system: PC-3; assay: Induction of apoptosis in human PC-3 cells assessed as early apoptotic cells at 12.5 uM by Annexin-V FITC staining based flow cytometry analysis (reference value: 1.51%); assay type: functional
[33] = test system: PC-3; assay: Induction of apoptosis in human PC-3 cells assessed as increase in cleaved PARP expression at 0.5 to 12.5 uM incubated for 48 hrs by Western blotting analysis; assay type: functional, cell-based; settings: dose 0.5-12.5 µM
[34] = test system: PC-3; assay: Antiangiogenesis activity in human PC-3 cells assessed as inhibition of tube formation incubated for 8 to 15 hrs by matrigel based inverted microscopic analysis; assay type: functional, cell-based; settings: dose 0.1-12.5 µM, time 8-15 hrs
[35] = test system: HUVEC; assay: Antiinvasive activity against HUVECs at 0.1 to 12.5 uM incubated for 24 hrs by crystal violet staining based optical microscopic analysis; assay type: functional, cell-based; settings: Homo sapiens, dose 0.1-12.5 µM
[36] = Toxicity in BALB/c mouse xenografted with human PC-3 cells assessed as change in heart morphology at 5 to 10 mg/kg, ip administered every 4 days for 20 days by H and E staining based inverted microscopic assay; assay type: organism-based; settings: in vivo, 480 h, dose 5-10 mg/kg, time 20 day
[37] = Cmax in Sprague-Dawley rat at 1.5 mg/kg, po measured upto 24 hrs by LC-MS/MS analysis; assay type: ADME, organism-based; design: time < 24 hrs, dose 1.5 mg/kg, route po; settings: in vivo
[38] = AUC in Sprague-Dawley rat at 1.5 mg/kg, po measured upto 24 hrs by LC-MS/MS analysis; assay type: ADME, organism-based; design: dose 1.5 mg/kg, time < 24 hrs, route po; settings: in vivo

Chain of AP2-associated protein kinase 1 (Q2M2I8 whole entry): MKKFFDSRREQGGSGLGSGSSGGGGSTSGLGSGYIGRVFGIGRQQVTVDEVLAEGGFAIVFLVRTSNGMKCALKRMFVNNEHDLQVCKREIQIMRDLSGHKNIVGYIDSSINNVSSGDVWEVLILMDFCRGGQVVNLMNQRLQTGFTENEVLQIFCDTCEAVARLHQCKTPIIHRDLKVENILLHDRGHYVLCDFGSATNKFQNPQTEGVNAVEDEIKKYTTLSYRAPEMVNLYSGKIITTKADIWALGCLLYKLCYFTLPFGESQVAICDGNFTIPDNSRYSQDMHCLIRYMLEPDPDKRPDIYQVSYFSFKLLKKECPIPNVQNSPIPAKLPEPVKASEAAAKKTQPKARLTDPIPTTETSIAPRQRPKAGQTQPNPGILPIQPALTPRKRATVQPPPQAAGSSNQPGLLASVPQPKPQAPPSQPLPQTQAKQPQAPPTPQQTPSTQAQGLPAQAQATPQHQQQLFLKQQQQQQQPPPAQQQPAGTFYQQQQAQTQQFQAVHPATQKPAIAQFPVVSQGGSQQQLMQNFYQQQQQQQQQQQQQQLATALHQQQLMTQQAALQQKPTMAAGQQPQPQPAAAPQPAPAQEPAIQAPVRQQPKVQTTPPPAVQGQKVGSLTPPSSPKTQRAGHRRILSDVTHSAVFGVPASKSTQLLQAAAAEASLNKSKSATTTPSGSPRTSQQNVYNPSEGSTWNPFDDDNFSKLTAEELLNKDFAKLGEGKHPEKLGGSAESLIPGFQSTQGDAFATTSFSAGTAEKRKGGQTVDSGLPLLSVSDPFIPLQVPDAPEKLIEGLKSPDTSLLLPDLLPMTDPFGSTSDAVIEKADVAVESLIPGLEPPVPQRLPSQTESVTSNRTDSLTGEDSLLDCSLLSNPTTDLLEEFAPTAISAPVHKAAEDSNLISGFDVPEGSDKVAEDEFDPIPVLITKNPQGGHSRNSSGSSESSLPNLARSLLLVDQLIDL
Chain of Cyclin-dependent kinase 4 (P11802 whole entry): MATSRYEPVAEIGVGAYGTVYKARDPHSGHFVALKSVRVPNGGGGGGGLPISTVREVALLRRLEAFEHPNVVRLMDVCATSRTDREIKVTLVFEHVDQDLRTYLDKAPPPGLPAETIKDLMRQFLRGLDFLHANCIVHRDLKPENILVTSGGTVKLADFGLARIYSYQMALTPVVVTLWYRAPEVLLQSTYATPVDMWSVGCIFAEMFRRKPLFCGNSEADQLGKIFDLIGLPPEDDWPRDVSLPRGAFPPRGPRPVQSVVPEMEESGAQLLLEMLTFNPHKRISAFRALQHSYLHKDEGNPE
Chain of Mitogen-activated protein kinase 8 (P45983 whole entry): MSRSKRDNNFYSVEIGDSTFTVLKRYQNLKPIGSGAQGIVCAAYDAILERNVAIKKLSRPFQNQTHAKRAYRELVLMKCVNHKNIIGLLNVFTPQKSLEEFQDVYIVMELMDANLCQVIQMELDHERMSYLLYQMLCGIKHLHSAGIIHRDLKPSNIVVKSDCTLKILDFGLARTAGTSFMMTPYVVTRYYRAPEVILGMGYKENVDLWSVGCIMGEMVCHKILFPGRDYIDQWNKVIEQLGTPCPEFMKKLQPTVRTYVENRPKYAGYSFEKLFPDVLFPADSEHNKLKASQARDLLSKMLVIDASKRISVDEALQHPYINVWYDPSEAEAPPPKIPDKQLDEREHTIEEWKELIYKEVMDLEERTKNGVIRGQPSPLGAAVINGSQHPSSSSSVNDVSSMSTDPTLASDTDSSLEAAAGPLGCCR
Chain of Tyrosine-protein kinase Blk (P51451 whole entry): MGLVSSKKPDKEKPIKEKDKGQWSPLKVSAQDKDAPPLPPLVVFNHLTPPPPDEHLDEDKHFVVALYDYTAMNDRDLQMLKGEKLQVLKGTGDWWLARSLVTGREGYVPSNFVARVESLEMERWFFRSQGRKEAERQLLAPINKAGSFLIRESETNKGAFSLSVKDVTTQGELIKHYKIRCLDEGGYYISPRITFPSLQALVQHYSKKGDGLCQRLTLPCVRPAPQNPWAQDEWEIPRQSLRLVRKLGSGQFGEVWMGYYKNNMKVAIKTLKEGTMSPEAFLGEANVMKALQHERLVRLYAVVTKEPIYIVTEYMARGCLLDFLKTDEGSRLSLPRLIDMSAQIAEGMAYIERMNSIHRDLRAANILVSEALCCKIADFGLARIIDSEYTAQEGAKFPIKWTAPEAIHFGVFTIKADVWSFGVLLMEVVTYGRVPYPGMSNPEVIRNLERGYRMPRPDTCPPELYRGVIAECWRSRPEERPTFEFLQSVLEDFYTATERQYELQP
Chain of Vascular endothelial growth factor A, long form (P15692 whole entry): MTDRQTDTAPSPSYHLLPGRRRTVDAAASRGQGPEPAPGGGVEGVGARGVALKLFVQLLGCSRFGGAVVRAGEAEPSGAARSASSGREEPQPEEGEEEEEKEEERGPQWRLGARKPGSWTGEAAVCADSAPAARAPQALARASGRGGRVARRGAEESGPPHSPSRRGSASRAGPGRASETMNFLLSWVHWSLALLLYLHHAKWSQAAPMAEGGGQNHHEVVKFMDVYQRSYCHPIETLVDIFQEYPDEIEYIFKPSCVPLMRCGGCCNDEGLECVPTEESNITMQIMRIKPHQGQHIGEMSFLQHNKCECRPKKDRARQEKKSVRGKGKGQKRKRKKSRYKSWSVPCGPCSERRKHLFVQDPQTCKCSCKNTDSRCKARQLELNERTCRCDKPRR
Chain of Tyrosine-protein kinase Fgr (P09769 whole entry): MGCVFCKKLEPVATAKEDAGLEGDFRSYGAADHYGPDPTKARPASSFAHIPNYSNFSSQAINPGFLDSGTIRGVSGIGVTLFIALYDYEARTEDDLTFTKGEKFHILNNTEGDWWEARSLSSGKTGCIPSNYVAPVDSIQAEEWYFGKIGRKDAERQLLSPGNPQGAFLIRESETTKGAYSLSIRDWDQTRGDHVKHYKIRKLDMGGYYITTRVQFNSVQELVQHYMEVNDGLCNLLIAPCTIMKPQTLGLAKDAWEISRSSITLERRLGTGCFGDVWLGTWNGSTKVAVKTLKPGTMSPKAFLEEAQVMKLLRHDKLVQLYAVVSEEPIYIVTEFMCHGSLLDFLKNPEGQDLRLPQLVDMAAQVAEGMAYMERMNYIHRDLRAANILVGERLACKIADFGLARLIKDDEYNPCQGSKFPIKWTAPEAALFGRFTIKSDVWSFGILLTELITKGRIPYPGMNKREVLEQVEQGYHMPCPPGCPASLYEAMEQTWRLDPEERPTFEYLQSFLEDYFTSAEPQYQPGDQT
Chain of STE20-like serine/threonine-protein kinase (Q9H2G2 whole entry): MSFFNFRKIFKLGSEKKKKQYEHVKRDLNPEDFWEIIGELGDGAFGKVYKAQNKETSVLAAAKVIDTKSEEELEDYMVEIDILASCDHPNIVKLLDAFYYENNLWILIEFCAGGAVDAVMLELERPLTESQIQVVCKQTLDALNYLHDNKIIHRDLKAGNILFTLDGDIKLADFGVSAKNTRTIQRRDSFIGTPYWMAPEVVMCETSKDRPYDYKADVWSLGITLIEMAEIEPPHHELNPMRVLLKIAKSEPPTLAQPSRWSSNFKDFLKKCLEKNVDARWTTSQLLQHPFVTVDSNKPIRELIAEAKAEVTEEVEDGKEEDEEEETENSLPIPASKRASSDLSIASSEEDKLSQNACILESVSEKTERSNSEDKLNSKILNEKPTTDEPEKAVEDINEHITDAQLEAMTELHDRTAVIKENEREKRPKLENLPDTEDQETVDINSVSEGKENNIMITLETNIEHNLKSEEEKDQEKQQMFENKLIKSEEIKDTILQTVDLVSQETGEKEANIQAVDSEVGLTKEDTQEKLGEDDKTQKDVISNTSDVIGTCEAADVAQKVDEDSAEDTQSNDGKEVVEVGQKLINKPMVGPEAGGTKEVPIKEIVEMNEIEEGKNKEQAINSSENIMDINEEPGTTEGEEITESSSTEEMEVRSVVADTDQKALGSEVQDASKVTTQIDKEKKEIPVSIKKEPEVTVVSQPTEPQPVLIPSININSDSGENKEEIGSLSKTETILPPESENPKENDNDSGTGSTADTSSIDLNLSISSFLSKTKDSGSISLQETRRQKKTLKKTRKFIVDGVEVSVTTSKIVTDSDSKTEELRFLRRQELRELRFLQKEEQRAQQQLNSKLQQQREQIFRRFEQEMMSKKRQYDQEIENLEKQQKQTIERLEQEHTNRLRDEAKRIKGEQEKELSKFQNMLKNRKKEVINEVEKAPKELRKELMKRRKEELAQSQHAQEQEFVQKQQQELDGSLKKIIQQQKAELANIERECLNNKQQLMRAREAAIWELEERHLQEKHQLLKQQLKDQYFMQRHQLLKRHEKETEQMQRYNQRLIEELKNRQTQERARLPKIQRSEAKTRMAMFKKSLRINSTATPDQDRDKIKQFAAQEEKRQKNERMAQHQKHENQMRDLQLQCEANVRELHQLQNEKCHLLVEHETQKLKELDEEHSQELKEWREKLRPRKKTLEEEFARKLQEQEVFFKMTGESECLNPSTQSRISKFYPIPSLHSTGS
Chain of RAF proto-oncogene serine/threonine-protein kinase (P04049 whole entry): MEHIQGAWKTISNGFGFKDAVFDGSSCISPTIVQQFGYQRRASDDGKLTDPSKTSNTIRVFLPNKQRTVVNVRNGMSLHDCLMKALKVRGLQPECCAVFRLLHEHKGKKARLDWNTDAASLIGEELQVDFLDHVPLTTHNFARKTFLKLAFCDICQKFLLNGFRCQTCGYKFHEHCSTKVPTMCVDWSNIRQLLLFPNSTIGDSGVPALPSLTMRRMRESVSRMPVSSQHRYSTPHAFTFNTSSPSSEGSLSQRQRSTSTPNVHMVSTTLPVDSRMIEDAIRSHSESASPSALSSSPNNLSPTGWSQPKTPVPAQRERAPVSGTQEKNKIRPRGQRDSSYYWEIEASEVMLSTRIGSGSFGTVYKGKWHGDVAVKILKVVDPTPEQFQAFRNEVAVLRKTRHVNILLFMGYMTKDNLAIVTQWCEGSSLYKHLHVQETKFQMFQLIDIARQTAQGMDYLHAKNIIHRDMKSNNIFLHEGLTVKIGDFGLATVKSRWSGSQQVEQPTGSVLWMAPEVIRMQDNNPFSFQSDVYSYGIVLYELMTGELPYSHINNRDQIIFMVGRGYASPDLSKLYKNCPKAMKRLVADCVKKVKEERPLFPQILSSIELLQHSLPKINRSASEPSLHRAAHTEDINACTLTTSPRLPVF

With `COc1ccc(/C=C\c2cc(OC)c(OC)c(OC)c2)cc1NC(=O)CCC(=O)N[C@@H](CCCNC(=N)N)C(=O)O` the IC50 [1] was > 10 µM, the IC50 [2] was > 10 µM and the IC50 [3] was > 10 µM. The IC50 [4] was > 10 µM, the IC50 [5] was > 10 µM and the IC50 [6] was > 10 µM. For the same compound, the IC50 [7] was > 10 µM, the IC50 [8] was > 10 µM and the IC50 [9] was > 10 µM. The IC50 [10] was > 10 µM, the IC50 [11] was > 10 µM and the IC50 [12] was > 10 µM. The IC50 [13] was > 10 µM, the IC50 [14] was > 10 µM and the IC50 [15] was > 10 µM. For the same compound, the IC50 [16] was > 10 µM, the inhibition [17] was “Active” and the inhibition [18] was “Active”. The IC50 [19] was 0.02 µM, the Activity [20] was “Active” and the Activity [21] was “Active”. For the same compound, the Activity [22] was 4.48%, the Activity [23] was 85.03% and the Activity [24] was 8.96%. For the same compound, the Activity [25] was 51.13%, the Activity [26] was 14.02% and the Activity [27] was “Active”. The Activity [28] was “Active”, the Activity [29] was 0.12% and the viability at 2.5 µM [30] was 89.3%. The Activity [31] was 5.6%, the Activity [32] was 4.55% and the Activity [33] was “Active”. The Activity [34] was “Dose-Dependent Effect”, the Activity [35] was “Active” and the Activity [36] was “Non-Toxic”. The Cmax [37] was 1330 ng/mL and the AUC at 24 h [38] was 4300 ng·h/mL.
